{"source": "patent US20100120788A1", "about": "“IDENTIFICATION OF POLYNUCLEOTIDES FOR […] OF COMPOUNDS THAT […] WITH AND/OR MODULATE PROTEIN TYROSINE KINASES AND/OR PROTEIN TYROSINE KINASE […] IN PROSTATE CELLS” (Bristol-Myers Squibb Company, priority 2007, published 2010)", "key": {"[1]": {"system": "uPA protein", "assay": "uPA protein level in plasma of mice bearing PC3 xenograft tumors (ELISA)", "type": "in vivo, nu/nu athymic mice", "conditions": "30 mg/kg orally twice a day; following first week of treatment", "description": "FIG. 5. […] Xenograft tumors were established subcutaneously in nu/nu athymic mice. The mice were divided into three groups each with 8 mice after tumors had reached approximately 200 mg. […] Dasatinib was administered orally twice a day on a 5-day-on 2-day-off schedule for 20 doses. The tumor size measurement and blood sampling were performed prior to treatment and weekly for two weeks after treatment initiation. […] Experiments were performed as described in Example 2.\nThe mice were divided into three groups each with 8 mice after tumors had reached approximately 200 mg. […] Dasatinib was administered orally twice a day on a 5-day-on 2-day-off schedule for 20 doses. The tumor size measurement and blood sampling were performed prior to treatment and weekly for two weeks after treatment initiation. Tumor weight was determined using the following equation: tumor weight=(length*width^2)/2."}, "[2]": {"system": "16 prostate cell lines", "assay": "IC50 grouping of the panel of prostate cell lines (MTS)", "type": "cell-based", "conditions": "Homo sapiens", "description": "Based on the IC50s, cell lines were classified into two groups: 11 cell lines with IC50 lower than 200 nM were designated as sensitive group, and 5 cell lines with IC50 at least greater than 2 μM were considered as resistant group. The separation of these two groups was quite well, and the sensitive/resistant demarcation of 200 nM is within the peak range of BMS-A plasma concentrations in patients treated with the doses near the maximum tolerated dose.\nThe effect of BMS-A (dasatinib) treatment on cell proliferation was measured using a MTS colorimetric method (Promega, Madison, Wis.). The optimum number of cells to seed in 96-well plates to achieve linearity were determined in pilot experiments. Cells were plated at density of 2000-5000 cells/well into 96-well plates and cultured overnight. Cells were then treated with dasatinib at serially diluted concentrations. Three days later, MTS was added to the medium and quantified on a SPECTRAMAX® photometric plate reader (Molecular Devices, Sunnyvale, Calif.) at 490 nm. The results were plotted against drug concentrations and IC50s were calculated using Prism4 software (GraphPad, San Diego, Calif.). […] The mean±standard deviation (SD) were calculated except for cell lines that were highly resistant to the compound where accurate IC50s were hard to obtain. […]"}}, "data": [{"smiles": "Cc1nc(Nc2ncc(C(=O)Nc3c(C)cccc3Cl)s2)cc(N2CCN(CCO)CC2)n1", "note": "[BMS-A, N-(2-chloro-6-methylphenyl)-2-[[6-[4-(2-hydroxyethyl)-1-piperazinyl]-2-methyl-4-pyrimidinyl]amino]-5-thiazolecarboxamide]", "values": [{"measurement": "reduction of plasma uPA level", "setting": "[1]", "result": "~30", "unit": "%"}, {"measurement": "IC50", "setting": "[2]; 5 cell lines considered as resistant group", "result": "> 2000", "unit": "nM"}, {"measurement": "IC50", "setting": "[2]; 11 cell lines designated as sensitive group", "result": "< 200", "unit": "nM"}]}]}
